A short description of the data set: in vitro. The settings on record: human, hela cells, % viability.

Drawing on publication PMC12040169 (PLOS Biology, 2025), this text covers viability for 73 molecules.

As to `O=C(O)c1ccc(CNC(=O)c2ccc(Cl)c(S(=O)(=O)N3CCCC3)c2)cc1` [CBK297096], the viability at 28.5 h, 10 µM was found to be 95.7%.
The value for `Cc1ccc(-c2csc3ncnc(NCCCc4n[nH]c(N)c4C#N)c23)cc1` [CBK297100] was 98.1%; that for `CSCCC(NC(=O)c1ccc(S(=O)(=O)N2CC(C)OC(C)C2)cc1)C(=O)O` (stereo not shown) [CBK297101] was 104%; that for `CC(Sc1ncc(-c2ccc(F)cc2)n1Cc1ccccc1)C(=O)NC1CC1` (stereo not shown) [CBK297105] was 108%.
For the molecule `CC1CCN(S(=O)(=O)c2ccc(C(=O)N[C@@H](C)C(=O)O)cc2)CC1` [CBK297106], the viability at 28.5 h, 10 µM stood at 96.6%.
`CSCc1ccc(C(=O)Nc2cc(C(=O)O)ccc2C)cc1` [CBK297107]: the viability at 28.5 h, 10 µM was 93%.
As for `COc1ccc(-c2nnc(SC(C)c3nnc(-c4ccccc4)o3)n2CC(C)C)cc1` (stereo not shown) [CBK297108], the viability at 28.5 h, 10 µM was found to be 103%.
Consider `CCCn1c(SCC(=O)N2CCN(C(=O)c3cccs3)CC2)n[nH]c1=O` [CBK297109], for which the viability at 28.5 h, 10 µM came out at 97.6%.
The value for `O=C1COc2ccc(C(=O)CSc3nnc(C4CC4)n3C3CC3)cc2N1` [CBK297110] was 73.4%; that for `Cc1ccc2cc(COc3cccnc3[N+](=O)[O-])c(Cl)nc2c1C` [CBK297113] was 103%; that for `CC1CC(=O)Nc2ccccc2N1C(=O)Cn1c(=O)cnc2ccccc21` (stereo not shown) [CBK297116] was 95%.
The value for `Cc1c(C(=O)O)sc(S(=O)(=O)N2CCN(C(=O)c3ccc(F)cc3)CC2)c1C(=O)O` [CBK297118] was 107%; that for `Cc1ccc(C(=O)N2CCN(S(=O)(=O)c3sc(C(=O)O)c(C)c3C(=O)O)CC2)cc1` [CBK297120] was 91.1%; that for `Cc1c(C(=O)O)sc(S(=O)(=O)N2CCN(C(=O)CC3CCCC3)CC2)c1C(=O)O` [CBK297122] was 101%.
With `Cc1c(C(=O)O)sc(S(=O)(=O)N2CCN(C(=O)c3ccc(Cl)cc3)CC2)c1C(=O)O` [CBK297123] the figure was 96.9%; with `Cc1ccc2nc(Cn3cc(-c4cnn(Cc5ccccc5)c4)cn3)cn2c1` [CBK297125], 90.4%; with `COc1cccc(-c2noc(Cn3cnc4sccc4c3=O)n2)c1` [CBK297127], 85.3%.
In the case of `COc1ccc(S(=O)(=O)N2CCCCC2)cc1NC(=O)c1ccc(-c2nnn[nH]2)cc1` [CBK297128], the viability at 28.5 h, 10 µM turned out to be 93%.
On to `O=C(Cc1ccc2c(c1)CCCC2)Nc1cccc(-c2nnn[nH]2)c1` [CBK297129], for which the viability at 28.5 h, 10 µM is 114%.
For the molecule `O=C(CCCc1nc2ccccc2c(=O)[nH]1)NC(Cc1ccc(O)cc1)C(=O)O` (stereo not shown) [CBK297130], the viability at 28.5 h, 10 µM was found to be 101%.
The value for `CC(CCc1ccccc1)NC(=O)C(C)Sc1nnc(-c2cccs2)n1C1CC1` (stereo not shown) [CBK297131] was 89.5%.
In the case of `CCOCCCn1c(SCC(=O)NC(Cc2ccccc2)C(=O)O)nc2ccccc2c1=O` (stereo not shown) [CBK297132], the viability at 28.5 h, 10 µM was found to be 90.5%.
For the molecule `Cn1c(SCC(=O)Nc2cc(C(C)(C)C)no2)nnc1-c1ccc(C(C)(C)C)cc1` [CBK297133], the viability at 28.5 h, 10 µM stood at 89.6%.
With `Cc1c(C(=O)O)sc(S(=O)(=O)N2CCN(C(=O)Cc3ccsc3)CC2)c1C(=O)O` [CBK297134] the figure was 89.8%.
With `Cc1c(C(=O)O)sc(S(=O)(=O)N2CCN(C(=O)Cc3ccccc3Cl)CC2)c1C(=O)O` [CBK297137] the figure was 107%; with `CCc1ccc(CCC(=O)N2CCN(S(=O)(=O)c3sc(C(=O)O)c(C)c3C(=O)O)CC2)cc1` [CBK297138], 111%; with `O=C(O)c1cn(C2CC2)c2cc(N3CCN(C(=O)C4CCCO4)CC3)c(F)cc2c1=O` (stereo not shown) [CBK297139], 97.7%.
The value for `Cc1c(C(=O)O)sc(S(=O)(=O)N2CCN(C(=O)CC(C)c3ccccc3)CC2)c1C(=O)O` (stereo not shown) [CBK297143] was 97.4%; that for `CSc1ccccc1C(=O)N1CCN(S(=O)(=O)c2sc(C(=O)O)c(C)c2C(=O)O)CC1` [CBK297149] was 90.4%; that for `CC1CCN(S(=O)(=O)c2ccc(C(=O)NC(C(=O)O)C(C)O)cc2)CC1` (stereo not shown) [CBK297151] was 99.1%.
Regarding `Cc1ccc(-c2cc(C(=O)N3CCN(C4CCS(=O)(=O)C4)CC3)c3ccccc3n2)cc1` (stereo not shown) [CBK297153], the viability at 28.5 h, 10 µM was 112%.
With `Cc1nnc(CSc2ncc(-c3ccc(Cl)cc3)n2Cc2ccccc2)o1` [CBK297154], the viability at 28.5 h, 10 µM amounted to 103%.
The value for `COc1ccc(CN2CCN(C(=O)NS(=O)(=O)c3ccc(C)cc3)CC2)cc1F` [CBK297156] was 98.5%; that for `Clc1cc(CSc2nnnn2-c2ccccc2)cc2c1OCCCO2` [CBK297159] was 92.5%.
The value for `Cc1ccc(C(=O)O)cc1NC(=O)CSc1nc2scc(C3CC3)c2c(=O)n1-c1ccccc1` [CBK297481] was 107%; that for `Cc1cc(C)n2nc(SCc3nc4sc(C(=O)O)c(C)c4c(=O)[nH]3)nc2n1` [CBK297482] was 88.1%; that for `O=[N+]([O-])c1ccc(Sc2nnc(-c3cccs3)n2CC2CCCO2)cn1` (stereo not shown) [CBK297483] was 94.6%.
Regarding `COc1cc(C=CC(=O)O)cc(S(=O)(=O)Nc2ccccc2C(=O)NCCc2ccccc2)c1OC` [CBK297487], the viability at 28.5 h, 10 µM was found to be 99.5%.
The value for `O=C(Cn1nnc2ccccc21)NC(c1ccccc1)c1ccccc1` [CBK297488] was 110%.
The value for `CC[C@H](C)[C@H](NC(N)=O)C(=O)Nc1ccc(F)c([N+](=O)[O-])c1` [CBK297489] was 97.1%; that for `Cc1ccc(C(=O)O)cc1NS(=O)(=O)c1ccc2c(c1)OCCO2` [CBK297497] was 90.7%.
The value for `COc1cccc(NCc2nnc(SCC(=O)O)n2C2CCCCC2)c1` [CBK297499] was 95.6%.
For the molecule `Cn1nc(C(=O)NCCSc2n[nH]c(=O)[nH]c2=O)c2ccccc2c1=O` [CBK297501], the viability at 28.5 h, 10 µM worked out at 79.1%.
The value for `COc1ccc(C2CC(c3ccc4ccccc4c3)=NN2C(=O)COc2ccccc2C(=O)O)cc1` (stereo not shown) [CBK297503] was 102%; that for `Cc1cc(C(=O)Cn2nc(C(=O)O)c3ccccc3c2=O)c(C)n1Cc1ccccc1Cl` [CBK297504] was 111%.
For the molecule `COc1ccc(CCNC(=O)c2ccccc2NS(=O)(=O)c2cc(C(=O)O)ccc2OC)cc1` [CBK297506], the viability at 28.5 h, 10 µM amounted to 90.8%.
With `CCOc1ccc2cc(C3CC(c4ccc(C)cc4)=NN3C(=O)CCC(=O)O)c(Cl)nc2c1` (stereo not shown) [CBK297508] the figure was 87.2%; with `Cc1cccc(NC(=O)[C@@H](NC(=O)c2ccccc2F)C(C)C)c1C` [CBK297509], 85.4%.
With `Cc1[nH]c2ccccc2c1C(=O)CSc1nc(N)cc(=O)[nH]1` [CBK297511] the figure was 103%.
With `CCOc1ccc(-n2c(SCC(=O)Nc3cc(C(=O)O)ccc3Cl)nc3ccccc3c2=O)cc1` [CBK297512] the figure was 109%.
As to `O=C(CSc1ncc(C(=O)O)n1-c1ccc(F)cc1)NCCc1ccc(F)cc1` [CBK297513], the viability at 28.5 h, 10 µM turned out to be 93.3%.
For the molecule `O=C(Nc1ccc(Cl)c(Cl)c1)N1CCN(c2n[nH]c(=O)[nH]c2=O)CC1` [CBK297514], the viability at 28.5 h, 10 µM was found to be 89.4%.
The value for `Cc1ccc2c(CSc3nc(N)cc(N)n3)cc(=O)oc2c1C` [CBK297519] was 87.7%.
Turning to `C=CCn1c(SCC(=O)Nc2nc3ccc(OCC)cc3s2)nc2cc(C(=O)O)ccc2c1=O` [CBK297520], the viability at 28.5 h, 10 µM is 113%.
As for `CN(c1ccccc1)S(=O)(=O)c1ccc(C(=O)NCc2cccnc2)cc1` [CBK297522], the viability at 28.5 h, 10 µM stood at 95.5%.
The value for `CCCCOc1ccc(C=Cc2nc3sc(C(=O)O)c(C)c3c(=O)[nH]2)cc1` [CBK297524] was 86.5%.
The value for `Cc1ccc2[nH]c(SCC(=O)Nc3ccc(C(=O)O)cc3)nc2c1` [CBK297526] was 85.7%; that for `COc1ccc(-c2nnc(SCC(=O)NC(=O)c3ccccc3)n2CC(C)C)cc1` [CBK297527] was 101%.
With `Cc1nc2sc(C(=O)OCc3cc(=O)oc4cc5c(cc34)CCC5)c(C)c2c(=O)[nH]1` [CBK297528] the figure was 114%.
Regarding `Cc1ccc(C)c(Sc2ccc(S(=O)(=O)Nc3ccc(C(=O)O)cc3)cc2)c1` [CBK297529], the viability at 28.5 h, 10 µM is 109%.
The value for `CC1(C)C(=O)Nc2ccccc2N1C(=O)COc1ncnc2sc3c(c12)CCC3` [CBK297530] was 89.9%; that for `CC(C)NS(=O)(=O)c1ccc(NS(=O)(=O)c2ccc(F)c(C(=O)O)c2)cc1` [CBK297533] was 93.6%; that for `CC(=O)Nc1ccc2c(CSc3nnc(-c4ccco4)n3C)cc(=O)oc2c1` [CBK297534] was 91.7%.
As for `O=C(COc1ccc(C(=O)c2ccc(F)cc2)cc1)c1ccc2c(c1)OCCO2` [CBK297536], the viability at 28.5 h, 10 µM worked out at 111%.
Take `Cc1c(C(=O)O)sc2nc(C=Cc3ccc(OCCC(C)C)cc3)[nH]c(=O)c12` [CBK297539]: the viability at 28.5 h, 10 µM is 94%.
The value for `CSc1nc2ccc(NS(=O)(=O)c3ccc(Cl)c(C(=O)O)c3)cc2s1` [CBK297541] was 82.6%.
With `O=C(Cn1cnc2ccc([N+](=O)[O-])cc2c1=O)Nc1ccc(C(=O)O)cc1` [CBK297542] the figure was 85.5%; with `COc1ccc(O)c(C(=O)c2cnn(C(=O)c3ccc(C)cc3)c2)c1` [CBK297546], 86.3%.
The value for `CCCn1c(SCC(=O)NCc2ccc(OC)cc2)n[nH]c1=O` [CBK297549] was 90.2%.
As for `CC(Sc1ccc(S(=O)(=O)N2CCN(C)CC2)cn1)C(=O)Nc1ccc(C(C)(C)C)cc1` (stereo not shown) [CBK297551], the viability at 28.5 h, 10 µM was 106%.
With `Cc1nn(-c2ccccc2)c2sc(C(=O)N3CCN(C(=O)c4ccccc4)CC3)cc12` [CBK297554] the figure was 96.1%; with `CCCn1c(N)c(C(=O)CSc2ncnc3sc4c(c23)CCCC4)c(=O)[nH]c1=O` [CBK297556], 77.8%.
With `CC(C)(C)c1cc(NC(=O)Cn2nc(C(=O)O)c3ccccc3c2=O)n(-c2ccccc2)n1` [CBK297557] the figure was 85.1%.
